Source: ChEMBL document CHEMBL2016462, “Inhibitors of Ketohexokinase: Discovery of Pyrimidinopyrimidines with Specific Substitution that Complements the ATP-Binding Site” (ACS Med Chem Lett, 2011)
pIC50: −log10 of the molar value.

Experiments:
[1] = biological target: T1, Ketohexokinase (Homo sapiens, UniProt P50053); test: Inhibition of human ketohexokinase isoform C expressed in Escherichia coli BL21 (DE3) cells using D-fructose as substrate after 12 to 15 mins by fluorescence polarization assay
T1 sequence (P50053 whole entry): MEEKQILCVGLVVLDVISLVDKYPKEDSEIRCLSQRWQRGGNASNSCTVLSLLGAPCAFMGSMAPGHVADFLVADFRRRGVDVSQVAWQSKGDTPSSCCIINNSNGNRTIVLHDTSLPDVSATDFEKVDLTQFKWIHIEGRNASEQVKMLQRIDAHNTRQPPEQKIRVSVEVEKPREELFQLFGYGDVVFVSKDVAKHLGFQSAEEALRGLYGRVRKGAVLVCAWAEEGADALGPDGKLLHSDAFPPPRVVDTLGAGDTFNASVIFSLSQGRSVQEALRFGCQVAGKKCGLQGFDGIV

[2] = biological target: T1, Ketohexokinase; test: Inhibition of ketokinase isoform C in human HepG2 cells assessed as levels of fructose-1-phosphate preincubated for 30 mins followed by substrate addition measured after 3 hrs by LC-MS analysis; type: cell-based

Compound | pIC50 [1] | pIC50 [2]
C#CCNc1ncnc2c(Nc3ccccc3C)nc(N3CCNCC3)nc12 | 6.52 | –
Cc1ccccc1Nc1nc(N2CCNCC2)nc2c(NCc3ccccc3)ncnc12 | 6.40 | –
Cc1ccccc1Nc1nc(N2CCNCC2)nc2c(NCc3cccs3)ncnc12 | 6.52 | –
Cc1ccccc1Nc1nc(N2CCNCC2)nc2c(NCc3nccs3)ncnc12 | 7.22 | –
Cc1ccccc1Nc1nc(N2CCCNCC2)nc2c(NCC3CC3)ncnc12 | 6.52 | –
Cc1ccccc1Nc1nc(N2CCN(C)CC2)nc2c(NCC3CC3)ncnc12 | 5.82 | –
Cc1ccccc1Nc1nc(N2CCOCC2)nc2c(NCC3CC3)ncnc12 | < 5.15 | –
Cc1ccccc1Nc1nc(N2CCC(CN)CC2)nc2c(NCC3CC3)ncnc12 | 7.15 | –
Cc1ccccc1Nc1nc(N2CCC(N)CC2)nc2c(NCC3CC3)ncnc12 | 6.70 | –
Cc1ccccc1Nc1nc(NC2CCNCC2)nc2c(NCC3CC3)ncnc12 | 6.15 | –
CSc1ccccc1Nc1nc(N2CCNCC2)nc2c(NCC3CCC3)ncnc12 | 7.74 | –
CSc1ccccc1Nc1nc(N2CCNCC2)nc2c(NCCC3CC3)ncnc12 | 7.30 | –
COCCNc1ncnc2c(Nc3ccccc3SC)nc(N3CCNCC3)nc12 | 8.15 | 6.85
CSc1ccccc1Nc1nc(N2CCNCC2)nc2c(NCc3cccs3)ncnc12 | 7.52 | –
CSc1ccccc1Nc1nc(N2CCNCC2)nc2c(NCc3nccs3)ncnc12 | 7.80 | 6.57
CSc1ccccc1Nc1nc(N2CCNCC2)nc2c(NCc3ccccn3)ncnc12 | 8.01 | 6.57
CSc1ccccc1Nc1nc(N2CCNCC2)nc2c(N)ncnc12 | 8.15 | 7.11
CSc1ccccc1Nc1nc(N2CCC[C@@H](N)C2)nc2c(NCC3CC3)ncnc12 | 7.74 | –
CSc1ccccc1Nc1nc(N2CCC[C@H](N)C2)nc2c(NCC3CC3)ncnc12 | 7.64 | –
CSc1ccccc1Nc1nc(N2CCC(CN)CC2)nc2c(NCC3CC3)ncnc12 | 8.00 | –
CSc1ccccc1Nc1nc(N2CC(CN)C2)nc2c(NCC3CC3)ncnc12 | 7.52 | 6.23
CSc1ccccc1Nc1nc(N2CC3(CNC3)C2)nc2c(NCC3CC3)ncnc12 | – | 6.44
CNCCN(C)c1nc(Nc2ccccc2SC)c2ncnc(NCC3CC3)c2n1 | 6.89 | –
CSc1ccccc1Nc1nc(N2CCC(CN(C)C)CC2)nc2c(NCC3CC3)ncnc12 | 6.85 | –
CSc1ccccc1Nc1nc(N2CCN(C)CC2)nc2c(NCC3CC3)ncnc12 | 6.96 | –
